Measurements as given in patent US10300065B2, “Method of treating or prevention of atherothrombotic events in patients with history of myocardial infarction” (ASTRAZENECA AB, priority 2015, dated 2019).

How the values were obtained:
[1] = system: patients with a history of myocardial infarction; experiment: PEGASUS-TIMI 54 trial, efficacy endpoints (intention-to-treat / full analysis set); assay type: in vivo, human
Text: The PEGASUS-TIMI 54 trial (also referred to as the PEGASUS trial or PEGASUS study herein) was a randomized, double-blind, placebo-controlled multinational clinical trial that enrolled over 21,000 patients at 1,161 sites in 31 countries. The protocol was approved by the relevant ethics committees at all participating sites. In the U.S., the PEGASUS trial was assigned a ClinicalTrials.gov number of NCT01225562.
Patients could be randomized regardless of their prior adenosine diphosphate (ADP) receptor blocker therapy or a lapse in therapy.
Randomization was performed using a central computerized telephone or web based system, and allocation was double-blind.
All patients enrolled in the PEGASUS trial were instructed to take open label aspirin at a dose of 75 to 150 mg daily.
A total of 1360 primary endpoint events would be required to provide approximately 90% power to detect a 20% relative risk reduction with the 90 mg twice daily dose and approximately 83% power to detect a 19% relative risk reduction with the 60 mg twice daily dose when each dose was compared individually with placebo. The primary efficacy analysis was conducted on an intention-to-treat basis, with each of the two doses individually compared to placebo, as a time to event analysis from randomization to the first occurrence of any element of the primary composite endpoint: cardiovascular death, myocardial infarction, or stroke. […] An exploratory analysis of both doses combined compared with placebo was prespecified.

[2] = cited from earlier work
[3] = 90 mg bd, 5651 patients with a coronary stent
[4] = 90 mg bid (N = 7050), at 3 years
[5] = 90 mg bid vs. placebo (N = 6988)

CCCSc1nc(N[C@@H]2C[C@H]2c2ccc(F)c(F)c2)c2nnn([C@@H]3C[C@H](OCCO)[C@@H](O)[C@H]3O)c2n1 [Ticagrelor, (1S,2S,3R,5S)-3-[7-{[(1R,2S)-2-(3,4-difluorophenyl)cyclopropyl]amino}-5-(propylthio)-3H-[1,2,3]-triazolo[4,5-d]pyrimidin-3-yl]-5-(2-hydroxyethoxy)cyclopentane-1,2-diol]
Composite of CV Death/MI/Stroke, landmark: Patients with events (%) ([1]; 90 mg bd, 1-360 days): (2.8%)
Stent thrombosis: Patients (%) with events [1, 3]: (0.6%)
Stent thrombosis: Patients with events [1, 3]: 32
Composite of CV Death/MI/Stroke, landmark: Patients with events ([1]; 90 mg bd, 361 days or more): 295
Composite of CV Death/MI/Stroke, landmark: Patients with events (%) ([1]; 90 mg bd, 361 days or more): (4.4%)
Stent thrombosis: KM % ([1]; 90 mg bd, at 36 months): 0.6%
Composite of CV Death/MI/Stroke, landmark: KM % at 24 months ([1]; 90 mg bd, cumulative from day 361 to day 720): 2.4%
Composite of CV Death/MI/Stroke, landmark: KM % at 36 months ([1]; 90 mg bd, cumulative from day 361 to day 1080): 5.2%
MI: ARR (%) ([1]; 90 mg bid): 0.85%
MI: NNT ([1]; 90 mg bid): 118
Stroke: ARR (%) ([1]; 90 mg bid): 0.33%
Stroke: NNT ([1]; 90 mg bid): 303
All Stroke: 3-year Kaplan-Meier estimate ([1]; 90 mg bid (N = 7050)): (1.61) %
All Stroke: n ([1]; 90 mg bid (N = 7050)): 100
Cardiovascular Death or Myocardial infarction: 3-year Kaplan-Meier estimate ([1]; 90 mg bid (N = 7050)): (6.79) %
Cardiovascular Death or Myocardial infarction: n ([1]; 90 mg bid (N = 7050)): 424
Cardiovascular Death, Myocardial infarction, or Stroke: 3-year Kaplan-Meier estimate ([1]; 90 mg bid (N = 7050)): (7.85) %
Cardiovascular Death, Myocardial infarction, or Stroke: n ([1]; 90 mg bid (N = 7050)): 493
Cardiovascular Death: 3-year Kaplan-Meier estimate ([1]; 90 mg bid (N = 7050)): (2.94) %
Cardiovascular Death: n ([1]; 90 mg bid (N = 7050)): 182
Coronary Heart Disease Death or Myocardial infarction: 3-year Kaplan-Meier estimate ([1]; 90 mg bid (N = 7050)): (5.59) %
Coronary Heart Disease Death or Myocardial infarction: n ([1]; 90 mg bid (N = 7050)): 350
Coronary Heart Disease Death, Myocardial infarction, or Stroke: 3-year Kaplan-Meier estimate ([1]; 90 mg bid (N = 7050)): (6.99) %
Coronary Heart Disease Death, Myocardial infarction, or Stroke: n ([1]; 90 mg bid (N = 7050)): 438
Coronary Heart Disease Death: 3-year Kaplan-Meier estimate ([1]; 90 mg bid (N = 7050)): (1.53) %
Coronary Heart Disease Death: n ([1]; 90 mg bid (N = 7050)): 97
Death from any cause: 3-year Kaplan-Meier estimate ([1]; 90 mg bid (N = 7050)): (5.15) %
Death from any cause: n ([1]; 90 mg bid (N = 7050)): 326
Hospitalization for Unstable Angina: n ([1]; 90 mg bid (N = 7050)): 33
Ischemic Stroke: 3-year Kaplan-Meier estimate ([1]; 90 mg bid (N = 7050)): (1.41) %
Ischemic Stroke: n ([1]; 90 mg bid (N = 7050)): 88
Myocardial infarction: 3-year Kaplan-Meier estimate ([1]; 90 mg bid (N = 7050)): (4.40) %
Myocardial infarction: n ([1]; 90 mg bid (N = 7050)): 275
Transient Ischemic Attack: n ([1]; 90 mg bid (N = 7050)): 17
Urgent Coronary Revascularization for Unstable Angina: n ([1]; 90 mg bid (N = 7050)): 74
Hospitalization for Unstable Angina: (%) [1, 4]: (0.50) %
Transient Ischemic Attack: (%) [1, 4]: (0.27) %
Urgent Coronary Revascularization for Unstable Angina: (%) [1, 4]: (1.16) %
Cardiovascular Death, Myocardial infarction, or Stroke: 3-year Kaplan-Meier estimate ([1]; 90 mg bid (N = 7050), listed as ticagrelor): 7.85%
All Stroke: HR ([1]; 90 mg bid vs Placebo): 0.82
Cardiovascular Death or Myocardial infarction: HR ([1]; 90 mg bid vs Placebo): 0.85
Cardiovascular Death, Myocardial infarction, or Stroke: HR ([1]; 90 mg bid vs Placebo): 0.85
Cardiovascular Death: HR ([1]; 90 mg bid vs Placebo): 0.87
Coronary Heart Disease Death or Myocardial infarction: HR ([1]; 90 mg bid vs Placebo): 0.81
Coronary Heart Disease Death, Myocardial infarction, or Stroke: HR ([1]; 90 mg bid vs Placebo): 0.82
Coronary Heart Disease Death: HR ([1]; 90 mg bid vs Placebo): 0.73
Coronary stent thrombosis: RRR ([1]; 90 mg bid vs Placebo): 36%
Death from any cause: HR ([1]; 90 mg bid vs Placebo): 1.00
Hospitalization for Unstable Angina: HR ([1]; 90 mg bid vs Placebo): 0.89
Ischemic Stroke: HR ([1]; 90 mg bid vs Placebo): 0.85
Myocardial infarction: HR ([1]; 90 mg bid vs Placebo): 0.81
Transient Ischemic Attack: HR ([1]; 90 mg bid vs Placebo): 1.00
Urgent Coronary Revascularization for Unstable Angina: HR ([1]; 90 mg bid vs Placebo): 0.97
coronary heart disease death, myocardial infarction, or stroke: RRR ([1]; 90 mg bid vs Placebo): 18%
Irreversible harm (CV death, MI, stroke, ICH, or fatal bleeding): HR [1, 5]: 0.88
Irreversible harm (CV death, MI, stroke, ICH, or fatal bleeding): RRR (%) [1, 5]: 12%
Net clinical benefit (CV death, MI, stroke, or TIMI major bleeding): HR [1, 5]: 1.00
Net clinical benefit (CV death, MI, stroke, or TIMI major bleeding): RRR (%) [1, 5]: 0%
ischemic events prevented if 10,000 patients were started on treatment versus placebo ([1]; 90 mg bid, intention-to-treat data): 40
increase in AUC ([2]; high-fat meal): 21%
mean absolute bioavailability ([2]; human, in vivo): about 36%
steady state volume of distribution ([2]; human, in vivo): 88 L
median tmax ([2]; in patients after administration of ticagrelor): 1.5 h
